Data reported in publication PMC5537355, “Structures and transport dynamics of a Campylobacter jejuni multidrug efflux pump” (Nature Communications, 2017).

Columns and labels:
CmeB = target: T1, CmeB (Campylobacter jejuni, UniProt Q8RTE4); experiment: isothermal titration calorimetry; format: binding; settings: 20 mM Na-HEPES pH 7.5, 0.03% DDM, room temperature; 20 μM monomer in cell; no cyclooctatetraene
T1 construct: full-length, N-terminal 6xHis (pET15b), E. coli BL21(DE3)deltaacrB host; homotrimer

[1] = target: Campylobacter jejuni CmeB multidrug efflux pump (Campylobacter jejuni) (UniProt Q8RTE4); experiment: crystal structure

Compound	KD (CmeB)	stoichiometry N [1]
C[C@H](CCC(=O)NCCS(=O)(=O)O)[C@H]1CC[C@H]2[C@@H]3CC[C@@H]4C[C@H](O)CC[C@]4(C)[C@H]3C[C@H](O)[C@]12C [taurodeoxycholate]	examine the binding of taurodeoxycholate to the purified CmeB transporter	–
Campylobacter jejuni CmeB multidrug efflux pump (from UniProt Q8RTE4) (natural protein)	–	3
